Experiments:
[1] = system: gram-negative and gram-positive bacteria; details: against both gram-negative and gram-positive bacteria; cited from earlier work
[2] = system: AV node conduction and cardiac contractibility; experiment: Effect on PR interval (AV node conduction) and cardiac contractibility in anesthetized guinea pig, continuous IV infusion; assay type: in vivo; details: infused at 6 μg/kg/min continuously IV
Method: The guinea pig or rat is anesthetized with pentobarbital at 40 mg/kg IP, then-connected to an EKG recorder. The animal is then placed on a small animal respirator. Aseptic surgical instruments are soaked in ethanol and then flamed. An incision is made in the chest wall to open the chest. A Walton Brody stain gauge arch is sutured to the right ventricle to measure contractile changes. The refractoriness of the AV node is determined by measuring the PR-interval on the surface EKG. Graphs can be created from the data displaying the dose related change in the PR interval to the dose related contractile augmentation. Digoxin or chiral isolates are infused through the jugular vein at concentrations (from 0.1 μM and then to 10 μM) at a constant rate by infusion pump, to determine the differential effects on the AV node and cardiac contractibility. The infusions are continued to a 50% level augmentation in contractibility or the development of ventricular tachycardia. To maintain a consistent level of anesthesia, pentobarbital 20 mg/kg IP or 10 mg/kg IV for more immediate action at 30-minute intervals may be administered.
The effect of digoxin and one of the two chiral isomers was evaluated in the guinea pig. Guinea pigs were anesthetized with pentobarbital. […] An EKG was continuously recorded. Conduction through the AV node was determined by measuring the PR interval on the surface EKG. […]

serum protein [3] = experiment: Digitoxin serum protein binding by equilibrium dialysis; assay type: in vitro ADME, patients
Method: Digitoxin protein binding was dependent on albumin content. […] Chamber equilibrium dialysis gave similar results. […] (mean, 96.7%) and at 37° C. (mean, 96.9%). Digoxin isolates will be used under similar conditions.

serum protein [4] = experiment: Free fraction of digitoxin by centrifugation; assay type: in vitro ADME
Method: Free fraction of digitoxin increased with centrifugation time from 18% at 10 minutes to 37% at 80 minutes (500 g) without reaching plateau levels.

[5] = system: digitoxin serum protein binding; experiment: In vitro drug studies: ability to induce changes in digitoxin serum protein binding; details: procainamide 5 mg/ml, phenytoin 50 mg/ml, heparin 5 IU/ml, rifampicillin 4.5 μg/ml
Method: Digoxin isolates will be used under similar conditions.
The ability to induce changes in digitoxin serum protein binding was tested for the following drugs: procainamide (5 mg/ml), phenytoin (50 mg/ml), heparin (5 IU/ml), and rifampicillin (4.5 μg/ml). […] Identical procedures will be used for digoxin isolates.

CC1COc2c(N3CCN(C)CC3)c(F)cc3c(=O)c(C(=O)O)cn1c23 (single isomer, unassigned; (-)) [(−)-Ofloxacin]
times more active as the racemate [1]: 8-128 times

CC1O[C@@H](O[C@H]2C(O)C[C@H](O[C@H]3C(O)C[C@H](OC4CC[C@@]5(C)[C@H](CC[C@@H]6[C@@H]5C[C@@H](O)[C@]5(C)[C@@H](C7=CC(=O)OC7)CC[C@]65O)C4)OC3C)OC2C)CC(O)[C@@H]1O (stereo partly shown) [Digoxin]
change in PR interval on the surface EKG [2]: progressive increase | change in cardiac contractibility as measured by the strain-gauge arch [2]: increase

C[C@H]1O[C@@H](O[C@H]2[C@@H](O)C[C@H](O[C@H]3[C@@H](O)C[C@H](O[C@H]4CC[C@@]5(C)[C@H](CC[C@@H]6[C@@H]5CC[C@]5(C)[C@@H](C7=CC(=O)OC7)CC[C@]65O)C4)O[C@@H]3C)O[C@@H]2C)C[C@H](O)[C@@H]1O [digitoxin]
digitoxin binding (mean) (serum protein [3]; sera from 9 patients dialyzed at 20° C.): 96.7% | digitoxin binding (mean) (serum protein [3]; sera from 9 patients dialyzed at 37° C.): 96.9% | free fraction (serum protein [4]; centrifugation 10 minutes, 500 g): 18% | free fraction (serum protein [4]; centrifugation 60 minutes, 135 g): 5.9% | free fraction (serum protein [4]; centrifugation 60 minutes, 560 g): 15.7% | free fraction (serum protein [4]; centrifugation 80 minutes, 500 g): 37%

O=C1NC(=O)C(c2ccccc2)(c2ccccc2)N1 [phenytoin]
changes in the serum protein binding of digitoxin [5]: None of these induced significant changes

CCN(CC)CCNC(=O)c1ccc(N)cc1 [procainamide]
changes in the serum protein binding of digitoxin [5]: None of these induced significant changes

heparin
changes in the serum protein binding of digitoxin [5]: None of these induced significant changes

rifampicillin
changes in the serum protein binding of digitoxin [5]: None of these induced significant changes
